Tests used:
Assay type in all cases: in vivo, rat
[1] = tested on: self-sustaining status epilepticus (SSSE); assay: Experiment 1b: SSSE after electrical stimulation of the perforant path (30 min stimulation), SPM 927 vs fosphenyloin; details: male Wistar rats, 50 mg/kg i.v. 10 min after end of 30 min stimulation; for spike frequency (number of spikes/10 min): vs control
Procedure: (§1) Animals: The experiments were performed on male Wistar rats, 280-300 g (Simonsen Labs, Calif.). Animals were kept at a constant room temperature with 12 hours artificial dark-light cycle with free access to standard diet and tap water.
(§2) Surgery: Under ketamine (60 mg/kg)/xylazine (15 mg/kg) anesthesia, animals were implanted with a bipolar stimulating electrode into the angular bundle of the perforant path (4.5 mm to left lambda, 1 mm anterior to lambdoid fissure) and a bipolar recording electrode into the granule cell layer of the ipsilateral dentate gyrus (3.5 mm anterior to lambda, 2.2 mm left to sagittal fissure). Depth of both electrodes was optimized by monitoring the amplitude and waveform of the population spike evoked from the dentate gyrus by stimuli delivered through the perforant path (single square wave monophasic stimuli, 20 V, 0.1 ms delivered every 10 s).
(§3) Induction of self-sustaining status epilepticus (SSSE): Seven days after surgery, animals were connected to a Cardionics 16 channel preamplifier, which was connected to the IBM computer. After 5 minutes of baseline EEG recording, animals were stimulated in the awake state for 60 minutes (Experiment 1a) or 30 minutes (Experiments 1b and 1c) with 10 s 20 Hz trains (1 ms square wave, 20 V) delivered every minute, together with 2 Hz continuous stimulation with the same parameters.
(§4) EEG monitoring and analysis: EEG from the dentate gyrus was monitored and recorded by means of commercial software (Monitor 8.1 from Stellate Systems). The software was configured for automatic detection and saving of spikes and seizures. Monitoring was performed for 24 hrs. EEG was analyzed off line by means of the same software. Spike distribution was presented as number of spikes per 10 min epoch, and the cumulated duration of seizures for 24 hrs of monitoring were calculated. Statistical analysis was performed by means of T-test. A p value less than 0.05 was considered statistically significant.
(§5) Drug administration: SPM 927 (50 mg/kg, 5 animals), phenyloin (PHT) (50 mg/kg), fosphenyloin (F-PTH, Parke-Davis, 50 mg/kg of phenyloin equivalent, 5 animals), diazepam (DZP) (10 mg/kg) or vehicle (VEH, 10% DMSO, 6 animals) were given i.v. 10 min after the end of perforant path stimulation in a volume of 1 ml/kg.

[2] = tested on: self-sustaining status epilepticus (SSSE); assay: Experiment 1a: SSSE after electrical stimulation of the perforant path (60 min stimulation); details: male Wistar rats, i.v. 10 min after end of 60 min perforant path stimulation; SPM 927 50 mg/kg, PHT 50 mg/kg, DZP 10 mg/kg; vs control
Procedure: as §1, §2, §3, §4, §5

[3] = tested on: generalized tonic-clonic seizures (GTCS) in chemically induced SSSE; assay: Experiment 2: chemically induced SSSE (cobalt/homocysteine thiolactone); details: for mean # GTCS: Sprague-Dawley rats
Procedure: Male Sprague-Dawley rats were prepared surgically with cobalt powder on the left frontal cortical surface.
Recording and stimulation protocol: Four epidural recording electrodes were arranged in a square grid (5 mm) over the cobalt lesion. EEG was monitored daily beginning 4-5 days following surgery. Status epilepticus was induced by i.p. injection of 5.5 mmol/kg homocysteine thiolactone whenever focal motor behaviour and EEG seizures were observed.
Drug administration: SPM 927 was administered (10-100 mg/kg) immediately following the second generalized tonic-clonic seizure (GTCS) occurring after homocysteine thiolactone injection.

[4] = tested on: hippocampal damage following SSSE; assay: Experiment 1c: hippocampal damage following SSSE (damaged neuron score); details: for hippocampal damage score, CA1 / hippocampal damage score, CA3 / hippocampal damage score, Hilus / hippocampal damage score, Subiculum: scale 0-5, brains collected 72 hours after SSSE
Procedure: as §1, §2, §3, §5
Collection of tissue: Brains were collected 72 hours after SSSE. This was accomplished by transcardial perfusion with first heparinized normal saline for about 2 minutes to largely clear the vasculature of blood and second by phosphate buffered formaldehyde (10% formaldehyde at pH 7.4) for 10 to 15 min (approximately 50 to 60 ml). Carcasses were placed in the refrigerator overnight to further firm the tissue and the brains were dissected from the heads the following day.
Preparation of brain sections for light microscopy: after Removal, the Brains were passed through a graded series of alcohol and clearing agent (Hemo-De, Fisher) and then embedded in paraffin. Serial 8 micron-thick coronal sections were cut from the embedded tissue at approximately 100 micron intervals and float mounted onto microscope slides. The sections were stained with hematoxylin and eosin and coverslipped.
Selection of sections for counting: Selection of sections for counting was controlled by the stereotaxic atlas for rats (Paxinos and Watson). The 3 sections selected for quantitation contained dorsal hippocampus and were 1.6±0.05 mm posterior to bregma.
Location of counting fields—damage to the pyramidal cell layer was assessed by counting damaged neurons in the subiculum, CA1, CA3, CA3c and the hilus in the dorsal hippocampus. The neurons were assessed individually from the beginning of the subiculum to the end of the CA3c region using an Olympus Provis Ax 70 microscope at a magnification of 40×. The CA3-CA3c transition was defined by a line connecting the extremeties of the blades of the dentate gyrus. The hilus was defined as the space located between the blades of the dentate gyrus, excluding the line of CA3c pyramids.
Criteria for differentiation of damaged versus non-damaged neurons—neurons were counted only if the majority of the nucleus was present in the section. Damaged neurons were counted if they were distinctly eosinophilic or distinctly pyknotic or both. All other cells with most of the nucleus present in the section (and counting field) were counted as not damaged. Each brain was assessed on left side and right side individually and also combined. The counting fields were individually divided into subiculum, CA1, CA3, CA3c and hilus. […]

[5] = 10 mg/kg, 30 min following treatment
[6] = 20 mg/kg, 30 min following treatment
[7] = 40 mg/kg, 30 min following treatment
[8] = 80 mg/kg, 30 min following treatment

O=C1NC(c2ccccc2)(c2ccccc2)C(=O)N1COP(=O)(O)O [Fosphenyloin, fosphenyloin, reference compound]
time until seizures stopped after injection [1]: ≤ 15 min | spike frequency (number of spikes/10 min) [1]: significantly lower than in control animals but significantly higher than in SPM 927 treated rats

O=C1NC(=O)C(c2ccccc2)(c2ccccc2)N1 [PHT, phenyloin]
cumulative seizure duration over the 24 h period [2]: potently and significantly reduced | time to the last seizure [2]: potently and significantly reduced

CN1C(=O)CN=C(c2ccccc2)c2cc(Cl)ccc21 [DZP, diazepam]
cumulative seizure duration over the 24 h period [2]: potently and significantly reduced | time to the last seizure [2]: potently and significantly reduced

COC[C@@H](NC(C)=O)C(=O)NCc1ccccc1 [SPM 927, (R)-2-acetamido-N-benzyl-3-methoxypropionamide]
seizure recurrence over the next 24 hrs [1]: did not recur | time during which a few single spikes were recorded [1]: about 12 hrs | time until seizures stopped after injection [1]: ≤ 15 min | spike frequency (number of spikes/10 min) [1]: significantly decreased | interval to 1st GTCS ([3]; 10 mg/kg): 6.6 min | # rats with GTCS [3, 5]: 8/8 | mean # GTCS [3, 5]: 4.8 | interval to 1st GTCS ([3]; 20 mg/kg): 8.9 min | # rats with GTCS [3, 6]: 7/8 | mean # GTCS [3, 6]: 2.7 | interval to 1st GTCS ([3]; 40 mg/kg): 5.6 min | # rats with GTCS [3, 7]: 4/8 | mean # GTCS [3, 7]: 3.8 | interval to 1st GTCS ([3]; 80 mg/kg): 14.0 min | # rats with GTCS [3, 8]: 3/8 | mean # GTCS [3, 8]: 2.7 | # rats with GTCS ([3]; 100 mg/kg, 30 min following treatment): 0/8 | number of rats experiencing GTCS ([3]; 10-100 mg/kg, 30 min following treatment): reduced in a dose-dependent fashion | cumulative seizure duration over the 24 h period [2]: potently and significantly reduced | time to the last seizure [2]: potently and significantly reduced | hippocampal damage score, CA1 ([4]; Contralateral): 1.2 ± 0.4 | hippocampal damage score, CA3 ([4]; Contralateral): 1.0 ± 0.0 | hippocampal damage score, Hilus ([4]; Contralateral): 1.4 ± 0.5 | hippocampal damage score, Subiculum ([4]; Contralateral): 1.0 ± 0.0 | hippocampal damage score, CA1 ([4]; Ipsilateral): 1.0 ± 0.0 | hippocampal damage score, CA3 ([4]; Ipsilateral): 1.0 ± 0.0 | hippocampal damage score, Hilus ([4]; Ipsilateral): 1.2 ± 0.4 | hippocampal damage score, Subiculum ([4]; Ipsilateral): 1.0 ± 0.0 | injured neurons in any hippocampal field ([4]; treated rats following SSSE): only an occasional injured neuron
